Literature values, collected in US11517624B2, “Pharmaceutical composition for the parenteral administration of ultrashort-effective β-adrenoreceptor antagonists” (AOP ORPHAN PHARMACEUTICALS AG, priority 2007, dated 2022).

## COCCc1ccc(OCC(O)CNC(C)C)cc1 (stereo not shown) [metoprolol]
  elimination half-life t1/2: 1.5 h
